From US20130281313A1, “PROGNOSTIC AND/OR PREDICTIVE BIOMARKERS AND BIOLOGICAL APPLICATIONS THEREOF” (INSTITUT GUSTAVE ROUSSY, priority 2010, published 2013)

Tests used:
A549 cells = experiment: Cytofluorometric assessment of cell death (DiOC6(3)/PI co-staining); assay type: cell-based, human
Procedure: Unless otherwise specified, chemicals were purchased from Sigma-Aldrich (St. Louis, USA), culture media and supplements for cell culture from Gibco-Invitrogen (Carlsbad, USA) and plasticware from Corning (Corning, USA). […] Orlistat (Xenical®) was obtained from Roche (Basel, Switzerland). […] Undissolved material was removed by two sequential rounds of centrifugation at 12,000 G (5 min, room temperature, RT), supernatants were collected and stored at −80° C. under protection from light until use. In low-throughput experiments, all cell lines were treated with 2.5 mM pyridoxine (PN), exception made for A549 cells that received 5 mM PN.
To avoid depleting the siRNA library of selected sequences, siRNAs for validation experiments were purchased as custom molecules from Sigma-Aldrich. For low-throughput experiments, (see below for the transfection protocols employed in the siRNA screen), siRNA were transfected in A549 cells with Oligofectamine™ reagent (Invitrogen), following the manufacturer's instructions. Transfection with a non-targeting siRNA (siUNR) was employed as a negative control condition. Forty-eight hours after transfection, siRNA-mediated target downregulation was assessed by immunoblotting (see below).
All cytofluorometric determinations were carried out a FACSCalibur or a FACScan cytofluorometer (BD Biosciences, San Jose, USA) equipped with a 70 μm nozzle.
First line statistical analysis of cytofluorometric results was performed by using the CellQuest™ software (BD Biosciences), by gating on the events characterized by normal forward scatter and side scatter parameters. Apoptosis- and cell cycle-related data were further analyzed with Microsoft Excel (Microsoft Co., Redmond, USA) and statistical significance was assessed by means of two-tailed Student's t test (p<0.05).

[1] = test system: A549 cells xenografted into immunodeficient Swiss nude mice; experiment: Tumor graft model: A549 cells in Swiss nude mice; assay type: in vivo, mouse; conditions: A549 cells on Swiss nude mice; 5 mg/kg intraperitoneal CDDP + intraperitoneal Orlistat (240 mg/Kg), three times a week
Procedure: (§1) C57BL/6 (H-2b) and Swiss Nude mice were obtained from Janvier (Le Genest St. Isle, France) and Charles River, respectively. Animals were maintained in pathogen-free conditions, and all experiments were carried out (upon approval by the local ethical committee) according to the Federation of European Laboratory Animal Science Association (FELASA) guidelines. Mice were used between 6 and 12 weeks of age. During the experiments, animals were subjected to artificial light cycle (12 h lights on-12 h lights off) and allowed food and drink ad libitum.
(§2) 5×10^5 LLC and A549 cells were subcutaneously xenografted (in 100 μL sterile PBS) in 25-30 immunocompetent (C57BL/6) and immunodeficient (Swiss Nude) mice, respectively. When the surface of tumors reached 25-40 mm^2, n=4-6 mice were assigned to either of 4 different treatment groups: group 1=100 μL intraperitoneal PBS; group 2=5 mg/kg intraperitoneal CDDP in 100 μL PBS; group 3=240 mg/Kg intraperitoneal Orlistat® in 40 μL PBS; group 4=5 mg/kg intraperitoneal CDDP in 100 μL PBS+intraperitoneal Orlistat® in 40 μL PBS. Treatments were administered three times a week (day 1, 3 and 5; day 8=day 1). Tumor size was monitored on the day of treatment by means of a standard calliper and tumor volume was extrapolated as previously described {Streit, 1999}. […] Statistical significance was evaluated by two-way ANOVA.

[2] = test system: murine Lewis lung carcinoma (LLC) cells in immunocompetent C57BL/6 mice; experiment: Tumor graft model: LLC cells in C57BL/6 mice; assay type: in vivo, mouse; conditions: 5 mg/kg intraperitoneal CDDP + intraperitoneal Orlistat (240 mg/Kg), three times a week
Procedure: as §1, §2

## CCCCCCCCCCC[C@@H](C[C@@H]1OC(=O)[C@H]1CCCCCC)OC(=O)[C@H](CC(C)C)NC=O [Orlistat®, Orlistat]
A549 cells; A549 cells in vitro, 25 or 75 μM CDDP
  cytotoxicity of CDDP upon pharmacological inhibition of LIPC: enhanced the cytotoxiticy of CDDP against A549 cells in vitro
A549 cells; A549 cells, followed by CDDP, DiOC6(3)/PI co-staining
  CDDP-induced killing, LIPC inhibition (orlistat) combined with IL6R inhibition: synergistically sensitized to CDDP-induced killing
[1]
  antitumor effects of CDDP-based chemotherapy (tumor growth): augmented the antitumor effects of CDDP-based chemotherapy in vivo
[2]
  antitumor effects of CDDP-based chemotherapy (tumor growth): augmented the antitumor effects of CDDP-based chemotherapy in vivo
